According to PMC5218480 (PLoS ONE, 2017):

Test system: MV-4-11 cells
Assay: Gene expression microarray analysis (Affymetrix PrimeView) and GSEA
Type: cell-based, human
Parameters: RFU PODN (11730768_x_at) / Fold change /veh PODN (11730768_x_at) / RFU LINC00158 (11744669_a_at) / Fold change /veh LINC00158 (11744669_a_at) / RFU DUSP10 (11751237_a_at) / Fold change /veh DUSP10 (11751237_a_at) / RFU ID3 (11757404_x_at) / Fold change /veh ID3 (11757404_x_at) / RFU PLEKHG5 (11737974_s_at) / Fold change /veh PLEKHG5 (11737974_s_at) / RFU LRRC4B (11730491_at) / Fold change /veh LRRC4B (11730491_at) / RFU GIMAP4 (11747438_a_at) / Fold change /veh GIMAP4 (11747438_a_at) / RFU KRT8 (11758183_x_at) / Fold change /veh KRT8 (11758183_x_at) / RFU CNN1 (11734310_a_at) / Fold change /veh CNN1 (11734310_a_at) / RFU VPS37D (11726825_at) / Fold change /veh VPS37D (11726825_at) / RFU C10orf10 (11716522_x_at) / Fold change /veh C10orf10 (11716522_x_at) / RFU KIR2DL2 /// KIR2DL4 /// KIR2DL5A /// KIR2DL5B /// KIR2DS1 /// KIR2DS2 /// KIR2DS3 /// KIR2DS4 /// KIR3DL3 /// KIR3DL3 /// KIR3DS1 (11738374_at) / Fold change /veh KIR2DL2 /// KIR2DL4 /// KIR2DL5A /// KIR2DL5B /// KIR2DS1 /// KIR2DS2 /// KIR2DS3 /// KIR2DS4 /// KIR3DL3 /// KIR3DL3 /// KIR3DS1 (11738374_at) / RFU C1QL1 (11718748_at) / Fold change /veh C1QL1 (11718748_at) / RFU TMPRSS4 (11747572_a_at) / Fold change /veh TMPRSS4 (11747572_a_at) / RFU HAMP (11756126_x_at) / Fold change /veh HAMP (11756126_x_at) / RFU RNFT2 (11725882_a_at) / Fold change /veh RNFT2 (11725882_a_at) / RFU NR4A2 (11747474_a_at) / Fold change /veh NR4A2 (11747474_a_at) / RFU ABCC12 (11746883_a_at) / Fold change /veh ABCC12 (11746883_a_at) / RFU TMEM136 (11760407_x_at) / Fold change /veh TMEM136 (11760407_x_at) / RFU CLDN22 /// WWC2 (11732394_at) / Fold change /veh CLDN22 /// WWC2 (11732394_at) / RFU HLA-DPB1 (11760878_x_at) / Fold change /veh HLA-DPB1 (11760878_x_at) / RFU SPINT1 (11716480_a_at) / Fold change /veh SPINT1 (11716480_a_at) / RFU GAP43 (11754022_s_at) / Fold change /veh GAP43 (11754022_s_at) / RFU A4GNT (11735810_at) / Fold change /veh A4GNT (11735810_at) / RFU PRB3 (11715151_x_at) / Fold change /veh PRB3 (11715151_x_at) / RFU TUBB4B (11761932_at) / Fold change /veh TUBB4B (11761932_at) / RFU CAPN14 (11732068_a_at) / Fold change /veh CAPN14 (11732068_a_at) / RFU TMCC2 (11721928_a_at) / Fold change /veh TMCC2 (11721928_a_at) / RFU IRGQ (11745062_a_at) / Fold change /veh IRGQ (11745062_a_at) / RFU FAM174B (11720279_a_at) / Fold change /veh FAM174B (11720279_a_at) / RFU TMPRSS4 (11748680_a_at) / Fold change /veh TMPRSS4 (11748680_a_at) / RFU FAM212B (11763350_a_at) / Fold change /veh FAM212B (11763350_a_at) / RFU PLEKHG5 (11743358_a_at) / Fold change /veh PLEKHG5 (11743358_a_at) / RFU ZSCAN30 (11745921_a_at) / Fold change /veh ZSCAN30 (11745921_a_at) / RFU CMKLR1 (11741424_a_at) / Fold change /veh CMKLR1 (11741424_a_at) / RFU LOC101060620 /// MAPK8IP1 (11723275_at) / Fold change /veh LOC101060620 /// MAPK8IP1 (11723275_at) / RFU SPTSSB (11747773_x_at) / Fold change /veh SPTSSB (11747773_x_at) / RFU PRSS12 (11739890_at) / Fold change /veh PRSS12 (11739890_at) / RFU BIN1 (11741810_x_at) / Fold change /veh BIN1 (11741810_x_at) / RFU WNT11 (11732464_a_at) / Fold change /veh WNT11 (11732464_a_at) / RFU C10orf10 (11716521_a_at) / Fold change /veh C10orf10 (11716521_a_at) / RFU C5orf56 (11738089_at) / Fold change /veh C5orf56 (11738089_at) / RFU CYB561 (11721691_x_at) / Fold change /veh CYB561 (11721691_x_at) / RFU ANKRD19P (11752326_a_at) / Fold change /veh ANKRD19P (11752326_a_at) / RFU OR2T12 /// OR2T33 /// OR2T8 (11738714_s_at) / Fold change /veh OR2T12 /// OR2T33 /// OR2T8 (11738714_s_at) / RFU VCAN (11748164_a_at) / Fold change /veh VCAN (11748164_a_at) / RFU JSRP1 (11732532_at) / Fold change /veh JSRP1 (11732532_at) / RFU KRTAP10-11 (11738290_x_at) / Fold change /veh KRTAP10-11 (11738290_x_at) / RFU MYO3A (11730013_a_at) / Fold change /veh MYO3A (11730013_a_at) / RFU EBF3 (11725865_a_at) / Fold change /veh EBF3 (11725865_a_at) / RFU CAMK2N1 (11719241_x_at) / Fold change /veh CAMK2N1 (11719241_x_at) / RFU C5orf56 (11738088_a_at) / Fold change /veh C5orf56 (11738088_a_at) / RFU OLFML3 (11715873_a_at) / Fold change /veh OLFML3 (11715873_a_at) / RFU LOC100653217 /// NTM (11731650_a_at) / Fold change /veh LOC100653217 /// NTM (11731650_a_at) / RFU MAPK11 (11762145_a_at) / Fold change /veh MAPK11 (11762145_a_at) / RFU FIZ1 (11724087_x_at) / Fold change /veh FIZ1 (11724087_x_at) / RFU OASL (11726364_x_at) / Fold change /veh OASL (11726364_x_at) / RFU SOX15 (11748057_x_at) / Fold change /veh SOX15 (11748057_x_at) / RFU CD79A (11719716_a_at) / Fold change /veh CD79A (11719716_a_at) / RFU HIST1H1D (11736915_at) / Fold change /veh HIST1H1D (11736915_at) / RFU CASKIN2 (11723855_a_at) / Fold change /veh CASKIN2 (11723855_a_at) / RFU LOC730098 (11760151_x_at) / Fold change /veh LOC730098 (11760151_x_at) / RFU OR4N2 (11742367_at) / Fold change /veh OR4N2 (11742367_at) / RFU PRRT2 (11749266_a_at) / Fold change /veh PRRT2 (11749266_a_at) / RFU SNX32 (11753110_a_at) / Fold change /veh SNX32 (11753110_a_at) / RFU CDHR5 (11726645_a_at) / Fold change /veh CDHR5 (11726645_a_at) / RFU RCAN1 (11760418_a_at) / Fold change /veh RCAN1 (11760418_a_at) / RFU FAM167A (11723789_a_at) / Fold change /veh FAM167A (11723789_a_at) / RFU FAM26E (11764081_at) / Fold change /veh FAM26E (11764081_at) / RFU ISYNA1 (11749810_s_at) / Fold change /veh ISYNA1 (11749810_s_at) / RFU ACY1 (11761880_at) / Fold change /veh ACY1 (11761880_at) / RFU 11764098_at / Fold change /veh 11764098_at / RFU SAMD14 (11745864_x_at) / Fold change /veh SAMD14 (11745864_x_at) / RFU NPB (11741838_a_at) / Fold change /veh NPB (11741838_a_at) / RFU TMPRSS6 (11731388_a_at) / Fold change /veh TMPRSS6 (11731388_a_at) / RFU KRTAP10-2 (11738614_at) / Fold change /veh KRTAP10-2 (11738614_at) / RFU ARHGAP8 /// PRR5-ARHGAP8 (11727945_x_at) / Fold change /veh ARHGAP8 /// PRR5-ARHGAP8 (11727945_x_at) / RFU KRTAP5-7 /// NADSYN1 (11734609_at) / Fold change /veh KRTAP5-7 /// NADSYN1 (11734609_at) / RFU RASL12 (11751679_a_at) / Fold change /veh RASL12 (11751679_a_at) / RFU CDKN2B (11736163_a_at) / Fold change /veh CDKN2B (11736163_a_at) / RFU PRF1 (11729649_at) / Fold change /veh PRF1 (11729649_at) / RFU, ZNF638 /// ZNF638-IT1 / Fold change vs veh, ZNF638 /// ZNF638-IT1 / RFU, PANK3 / Fold change vs veh, PANK3 / RFU, SH3YL1 / Fold change vs veh, SH3YL1 / RFU, ZEB2 / Fold change vs veh, ZEB2 / RFU, NRIP1 / Fold change vs veh, NRIP1 / RFU, PTTG1IP / Fold change vs veh, PTTG1IP / RFU, CAPN2 / Fold change vs veh, CAPN2 / RFU, MED14 / Fold change vs veh, MED14 / RFU, SNORA58 / Fold change vs veh, SNORA58 / RFU, C1orf63 / Fold change vs veh, C1orf63 / RFU, LRRFIP1 / Fold change vs veh, LRRFIP1 / RFU, NDUFAF7 / Fold change vs veh, NDUFAF7 / RFU, SLC12A2 / Fold change vs veh, SLC12A2 / RFU, IBTK / Fold change vs veh, IBTK / RFU, ESF1 / Fold change vs veh, ESF1 / Fold change vs veh, TMEM50B / RFU, TAOK1 / Fold change vs veh, TAOK1 / RFU, ACBD3 / Fold change vs veh, ACBD3 / RFU, TMA16 / Fold change vs veh, TMA16 / RFU, RWDD3 / Fold change vs veh, RWDD3 / RFU, BCAT1 / Fold change vs veh, BCAT1 / RFU, EDEM3 / Fold change vs veh, EDEM3 / RFU, TMEM33 / Fold change vs veh, TMEM33 / RFU, WDR75 / Fold change vs veh, WDR75 / RFU, AHCTF1 / Fold change vs veh, AHCTF1 / RFU, TFRC / Fold change vs veh, TFRC / RFU, ZDHHC17 / Fold change vs veh, ZDHHC17 / RFU, NOM1 / Fold change vs veh, NOM1 / RFU, ARL8B / Fold change vs veh, ARL8B / RFU, ZBTB11 / Fold change vs veh, ZBTB11 / RFU, TAMM41 / Fold change vs veh, TAMM41 / RFU, KIAA1704 /// LOC100996395 / Fold change vs veh, KIAA1704 /// LOC100996395 / RFU, ING1 / Fold change vs veh, ING1 / RFU, TRMT61B / Fold change vs veh, TRMT61B / RFU, FUBP3 / Fold change vs veh, FUBP3 / RFU, TP53 / Fold change vs veh, TP53 / RFU, TNKS2 / Fold change vs veh, TNKS2 / RFU, ZFP14 / Fold change vs veh, ZFP14 / RFU, ACTR2 / Fold change vs veh, ACTR2 / RFU, PPP3R1 / Fold change vs veh, PPP3R1 / RFU, PIK3R1 / Fold change vs veh, PIK3R1 / RFU, HNRNPA1 / Fold change vs veh, HNRNPA1 / RFU, RNF170 / Fold change vs veh, RNF170 / RFU, ZNF28 / Fold change vs veh, ZNF28 / RFU, RNGTT / Fold change vs veh, RNGTT / RFU, OGT / Fold change vs veh, OGT / RFU, BRD1 / Fold change vs veh, BRD1 / RFU, MARS / Fold change vs veh, MARS / RFU, ZNF655 / Fold change vs veh, ZNF655 / RFU, FAHD1 / Fold change vs veh, FAHD1 / RFU, BDP1 / Fold change vs veh, BDP1 / RFU, LRRCC1 / Fold change vs veh, LRRCC1 / RFU, ARID1A / Fold change vs veh, ARID1A / RFU, ZNF146 / Fold change vs veh, ZNF146 / RFU, ZNF330 / Fold change vs veh, ZNF330 / RFU, GPN3 / Fold change vs veh, GPN3 / RFU, C9orf123 / Fold change vs veh, C9orf123 / RFU, N4BP2L2 / Fold change vs veh, N4BP2L2 / RFU, ARFIP1 / Fold change vs veh, ARFIP1 / RFU, FAM179B / Fold change vs veh, FAM179B / RFU, BCL10 / Fold change vs veh, BCL10 / RFU, UHRF1BP1L / Fold change vs veh, UHRF1BP1L / RFU, BET1 / Fold change vs veh, BET1 / RFU, CNOT2 / Fold change vs veh, CNOT2 / RFU, ZNF268 / Fold change vs veh, ZNF268 / Fold change vs veh, ZNF507 / RFU, DGCR2 / Fold change vs veh, DGCR2 / RFU, WDSUB1 / Fold change vs veh, WDSUB1 / Fold change vs veh, HSP90B1 /// MIR3652 / RFU, ADSS / Fold change vs veh, ADSS / RFU, GK / Fold change vs veh, GK / RFU, ZNF148 / Fold change vs veh, ZNF148 / RFU, TAF9 / Fold change vs veh, TAF9 / RFU, SLC1A5 / Fold change vs veh, SLC1A5 / RFU, SLMO2 / Fold change vs veh, SLMO2 / RFU, ABCC4 / Fold change vs veh, ABCC4 / RFU, LOC101060439 /// RAP1B / Fold change vs veh, LOC101060439 /// RAP1B / RFU, RFX7 / Fold change vs veh, RFX7 / RFU, GTPBP10 / Fold change vs veh, GTPBP10 / RFU, CNEP1R1 / Fold change vs veh, CNEP1R1 / RFU, BIVM-ERCC5 /// ERCC5 / Fold change vs veh, BIVM-ERCC5 /// ERCC5 / RFU, ILF3 / Fold change vs veh, ILF3 / RFU 11762660_at / Fold change /veh 11762660_at / RFU VCAN (11757783_s_at) / Fold change /veh VCAN (11757783_s_at) / RFU DDX43 (11728927_at) / Fold change /veh DDX43 (11728927_at) / RFU KRT8 (11758188_x_at) / Fold change /veh KRT8 (11758188_x_at) / RFU NKD1 (11759106_at) / Fold change /veh NKD1 (11759106_at) / RFU SRD5A1 (11742802_a_at) / Fold change /veh SRD5A1 (11742802_a_at) / RFU TPSAB1 /// TPSB2 (11721975_s_at) / Fold change /veh TPSAB1 /// TPSB2 (11721975_s_at) / RFU GSTM3 (11746129_a_at) / Fold change /veh GSTM3 (11746129_a_at) / RFU IL23R (11737362_x_at) / Fold change /veh IL23R (11737362_x_at) / RFU TMEM51 (11727254_a_at) / Fold change /veh TMEM51 (11727254_a_at) / RFU PIWIL2 (11732686_x_at) / Fold change /veh PIWIL2 (11732686_x_at) / RFU ORM1 (11744905_x_at) / Fold change /veh ORM1 (11744905_x_at) / RFU CCDC152 (11743942_at) / Fold change /veh CCDC152 (11743942_at) / RFU ECM1 (11717891_a_at) / Fold change /veh ECM1 (11717891_a_at) / RFU IL23R (11748794_a_at) / Fold change /veh IL23R (11748794_a_at) / RFU TNFAIP8L3 (11732012_x_at) / Fold change /veh TNFAIP8L3 (11732012_x_at) / RFU MBOAT4 (11741988_at) / Fold change /veh MBOAT4 (11741988_at) / RFU 11764193_at / Fold change /veh 11764193_at / RFU TMEM53 (11763286_at) / Fold change /veh TMEM53 (11763286_at) / RFU MAGEB2 (11727129_at) / Fold change /veh MAGEB2 (11727129_at) / RFU TMEM200A (11744735_a_at) / Fold change /veh TMEM200A (11744735_a_at) / RFU CCDC152 (11751479_a_at) / Fold change /veh CCDC152 (11751479_a_at) / RFU FAM211A (11726209_a_at) / Fold change /veh FAM211A (11726209_a_at) / RFU RGS16 (11746705_a_at) / Fold change /veh RGS16 (11746705_a_at) / RFU VCAN (11755009_s_at) / Fold change /veh VCAN (11755009_s_at) / RFU RHOB (11743442_s_at) / Fold change /veh RHOB (11743442_s_at) / RFU RGS16 (11720943_a_at) / Fold change /veh RGS16 (11720943_a_at) / RFU RGS16 (11720944_at) / Fold change /veh RGS16 (11720944_at) / RFU, VPS4B / Fold change vs veh, VPS4B / RFU, CREB1 / Fold change vs veh, CREB1 / RFU, DNAJC13 / Fold change vs veh, DNAJC13 / RFU, GNAQ / Fold change vs veh, GNAQ / RFU, CDK5R1 / Fold change vs veh, CDK5R1 / RFU, ZRANB3 / Fold change vs veh, ZRANB3 / RFU, CUL4A / Fold change vs veh, CUL4A / RFU, CCNY / Fold change vs veh, CCNY / RFU, UFL1 / Fold change vs veh, UFL1 / RFU, COG3 / Fold change vs veh, COG3 / RFU, DIAPH2 / Fold change vs veh, DIAPH2 / RFU, SKA2 / Fold change vs veh, SKA2 / RFU, AFF3 / Fold change vs veh, AFF3 / RFU, LMF1 / Fold change vs veh, LMF1 / RFU, IPO11 / Fold change vs veh, IPO11 / RFU, DFFB / Fold change vs veh, DFFB / RFU, FOXP1 / Fold change vs veh, FOXP1 / RFU, CARD8 / Fold change vs veh, CARD8 / RFU, STRN3 / Fold change vs veh, STRN3 / RFU, ADK / Fold change vs veh, ADK / RFU, RASSF2 / Fold change vs veh, RASSF2 / RFU, WIPF1 / Fold change vs veh, WIPF1 / RFU, LARP1B / Fold change vs veh, LARP1B / RFU, RASA1 / Fold change vs veh, RASA1 / RFU, RB1 / Fold change vs veh, RB1 / RFU, PPFIA1 / Fold change vs veh, PPFIA1 / RFU, MAT2A / Fold change vs veh, MAT2A / RFU, CCT5 / Fold change vs veh, CCT5 / RFU, WDR92 / Fold change vs veh, WDR92 / RFU, CUX1 / Fold change vs veh, CUX1 / RFU, TTC7A / Fold change vs veh, TTC7A / RFU, TMEM135 / Fold change vs veh, TMEM135 / RFU, DEPTOR / Fold change vs veh, DEPTOR / RFU, CPM / Fold change vs veh, CPM / RFU, DNAJB6 / Fold change vs veh, DNAJB6 / RFU, CACNA2D3 / Fold change vs veh, CACNA2D3 / RFU, DTX4 / Fold change vs veh, DTX4 / RFU, TFCP2 / Fold change vs veh, TFCP2 / RFU, GMCL1 /// GMCL1P1 / Fold change vs veh, GMCL1 /// GMCL1P1 / RFU, AEBP2 / Fold change vs veh, AEBP2 / RFU, SNHG1 /// SNORD22 /// SNORD25 /// SNORD26 /// SNORD27 /// SNORD28 /// SNORD29 /// SNORD31 / Fold change vs veh, SNHG1 /// SNORD22 /// SNORD25 /// SNORD26 /// SNORD27 /// SNORD28 /// SNORD29 /// SNORD31 / Fold change (Aza/veh), C12orf56 (ProbeSet 11735607_a_at) / Fold change (ACY-1035/veh), C12orf56 (ProbeSet 11735607_a_at) / Fold change (Aza/veh), FGFR1OP (ProbeSet 11751329_s_at) / Fold change (ACY-1035/veh), FGFR1OP (ProbeSet 11751329_s_at) / Fold change (Aza/veh), VPS36 (ProbeSet 11739960_a_at) / Fold change (ACY-1035/veh), VPS36 (ProbeSet 11739960_a_at) / RFU SYPL1 (11715823_x_at) / Fold change /veh SYPL1 (11715823_x_at) / RFU IGFBP7 (11715501_s_at) / Fold change /veh IGFBP7 (11715501_s_at) / RFU REEP3 (11722064_at) / Fold change /veh REEP3 (11722064_at) / RFU IGLL1 (11728026_x_at) / Fold change /veh IGLL1 (11728026_x_at): dose or concentration left out as unconfirmed
Details: MV-4-11 cells, 48 hours

Nc1ccc(-c2cccs2)cc1NC(=O)c1ccc2c(c1)cc(C1CC1)n2CCN1CCOCC1 [ACY-1035]
Fold change /veh ZSCAN30 (11745921_a_at): 1.04
